# Where a name gives a salt, the structure may show the parent alone.
# Biological target: human β2 adrenergic receptor (Homo sapiens, UniProt P07550)
# Experiment: cell-based
# Details: 10 min; compounds tested at 10 nM, isoproterenol at 10 μM; CHO cells, 10 min at 37° C; read-out: β2: % of isoproterenol activity (increase in cAMP)
# Procedure: The activity of the test compounds on human β-adrenergic receptors was determined with Chinese hamster ovary (CHO) cells transfected with human β2, or β1 adrenergic receptors. Agonist activity is indicated by increased cAMP levels in the CHO cells. Selectivity of the test compounds for the β3 receptor was assessed by comparison with results in β2 and β1 adrenergic receptor transfected cells.
# 1). Chinese hamster ovary (CHO) cells transfected with human β2, or β1 adrenergic receptors were used in the assay.
# 2). Cells were grown to confluent conditions in 24 well plates.
# 3). Drugs were dissolved in DMSO at a concentration of 10 μM.
# 4). Cells were incubated with drug at 10 nM concentration for 10 min at 37° C.
# 5). Cell cAMP concentrations were assayed using a scintillation proximity assay kit from Amersham Corp., Chicago, Ill.
# 6). Activities for the test compounds are expressed as a percentage of the isoproterenol response.
# Production of the CHO cells transfected with human β2, or β1 adrenergic receptors, and compound test procedures utilizing the CHO cells, are described by Emorine et al. in their article "Molecular Characterization of the Human Beta3 -Adrenergic Receptor", Science 1989, 245(8), 1118-1121 and by Muzzin et al. in the article "An Adipose Tissue-Specific Beta3 -Adrenergic Receptor", J. Biol. Chem.1991, 266, 24053-24058.
# ^a Human β receptors expressed in Chinese hamster ovary cells,
# compounds tested at 10 nM, results expressed as % of isoproterenol
# activity (increase in cAMP) at 10 μM. EC50 (μM) values
# determined for selected compounds.
# Sequence of human β2 adrenergic receptor (P07550 whole entry): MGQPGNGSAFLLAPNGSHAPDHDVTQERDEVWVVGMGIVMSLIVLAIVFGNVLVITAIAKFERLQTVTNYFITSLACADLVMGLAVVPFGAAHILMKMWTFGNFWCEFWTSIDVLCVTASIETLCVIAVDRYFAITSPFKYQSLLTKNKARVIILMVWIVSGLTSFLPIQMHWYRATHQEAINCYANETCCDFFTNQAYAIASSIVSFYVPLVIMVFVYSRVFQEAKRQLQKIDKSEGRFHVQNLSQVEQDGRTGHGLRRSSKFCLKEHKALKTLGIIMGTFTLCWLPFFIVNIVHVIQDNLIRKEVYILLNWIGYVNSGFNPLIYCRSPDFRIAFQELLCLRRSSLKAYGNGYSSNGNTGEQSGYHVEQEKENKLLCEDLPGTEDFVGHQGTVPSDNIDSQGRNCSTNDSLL
row,activation at 0.01 µM [%],SMILES
1,2,"CC(Cc1ccc2c(c1)OC(C(=O)OCOC(=O)CC(C)(C)C)(C(=O)OCOC(=O)CC(C)(C)C)O2)NCC(O)c1cccc(Cl)c1 (centres unmarked) [Example 53, 5-{2-[2-(3-Chloro-phenyl)-2-hydroxyethylamino]propyl}benzo[1,3] dioxole-2,2-dicarboxylic acid bis-(3,3-dimethyl-butyryloxymethyl) ester]"
2,6,"CCCCCCCCCOC(=O)C1(C(=O)OCCCCCCCCC)Oc2ccc(CC(C)NCC(O)c3cccc(Cl)c3)cc2O1 (centres unmarked) [Example 18, 5-{2-[2-(3-Chloro-phenyl)-2-hydroxy-ethylamino]-propyl}-benzo[1,3]dioxole-2,2-dicarboxylic acid dinonyl ester]"
3,0,"CC(Cc1ccc2c(c1)OC(C(=O)OCOC(=O)CCC1CCCC1)(C(=O)OCOC(=O)CCC1CCCC1)O2)NCC(O)c1cccc(Cl)c1 (centres unmarked) [Example 55, 5-{2-[2-(3-Chloro-phenyl)-2-hydroxy-ethylamino]propyl}benzo[1,3]dioxole-2,2-dicarboxylic acid bis-(3-cyclopentyl-propionyloxymethyl) ester]"
4,7,"COC(=O)C(C)OC(=O)C1(C(=O)OC(C)C(=O)OC)Oc2ccc(CC(C)NCC(O)c3cccc(Cl)c3)cc2O1 (centres unmarked) [Example 26, 5-{2-[2-(3-Chloro-phenyl)-2-hydroxy-ethylamino]-propyl}-benzo[1,3]dioxole-2,2-dicarboxylic acid bis-(1-methoxycarbonyl-ethyl) ester]"
5,13,"CC(Cc1ccc2c(c1)OC(C(=O)O)(C(=O)OCCc1ccsc1)O2)NCC(O)c1cccc(Cl)c1 (centres unmarked) [Example 72, 5-{2-[2-(3-Chloro-phenyl)-2-hydroxy-ethylamino]-propyl}-benzo[1,3]dioxole-2,2-dicarboxylic acid 2-(3-Thienyl)ethyl ester]"
6,5,"CCCCCCOC(=O)C1(C(=O)OCCCCCC)Oc2ccc(CC(C)NCC(O)c3cccc(Cl)c3)cc2O1 (centres unmarked) [Example 14, 5-{2-[2-(3-Chloro-phenyl)-2-hydroxy-ethylamino]-propyl}-benzo[1,3]dioxole-2,2-dicarboxylic acid dihexyl ester]"
7,1,"CCCCCCCCOC(=O)C1(C(=O)OCCCCCCCC)Oc2ccc(CC(C)NCC(O)c3cccc(Cl)c3)cc2O1 (centres unmarked) [Example 12, 5-{2-[2-(3-Chloro-phenyl)-2-hydroxy-ethylamino]-propyl}-benzo[1,3]dioxole-2,2-dicarboxylic acid dioctyl ester]"
8,0,"CCC(CC)COC(=O)C1(C(=O)OCC(CC)CC)Oc2ccc(C[C@@H](C)NC[C@H](O)c3cccc(Cl)c3)cc2O1 [Example 74, 5-{(2R)-2-[(2R)-2-(3-Chloro-phenyl)-2-hydroxy-ethylamino]-propyl}-benzo[1,3]dioxole-2,2-dicarboxylic acid bis-(2-ethylbutyl) ester]"
9,1,"CC(Cc1ccc2c(c1)OC(C(=O)OCOC(=O)C(C)C)(C(=O)OCOC(=O)C(C)C)O2)NCC(O)c1cccc(Cl)c1 (centres unmarked) [Example 45, 5-{2-[2-(3-Chloro-phenyl)-2-hydroxyethylamino]propyl}benzo[1,3] dioxole-2,2-dicarboxylic acid bis-isobutyryloxymethyl ester]"
10,0,"C[C@H](Cc1ccc2c(c1)OC(C(=O)O)(C(=O)OCC13CC4CC(CC(C4)C1)C3)O2)NC[C@H](O)c1cccc(Cl)c1 (stereo partly drawn) [Example 79, 5-{(2R)-2-[(2R)-2-(3-Chloro-phenyl)-2-hydroxy-ethylamino]-propyl}-benzo[1,3]dioxole-2,2-dicarboxylic acid adamantan-1-ylmethyl ester]"
11,4,"CC(Cc1ccc2c(c1)OC(C(=O)OCOC(=O)C(C)(C)C)(C(=O)OCOC(=O)C(C)(C)C)O2)NCC(O)c1cccc(Cl)c1 (centres unmarked) [Example 49, 5-{2-[2-(3-Chloro-phenyl)-2-hydroxyethylamino]propyl}benzo[1,3] dioxole-2,2-dicarboxylic acid bis-(2,2-dimethyl-propionyloxymethyl) ester]"
12,1,"CC(Cc1ccc2c(c1)OC(C(=O)OCC1(C)CC1)(C(=O)OCC1(C)CC1)O2)NCC(O)c1cccc(Cl)c1 (centres unmarked) [Example 39, 5-{2-[2-(3-Chloro-phenyl)-2-hydroxy-ethylamino]-propyl}-benzo[1,3]dioxole-2,2-dicarboxylic acid bis-(1-methyl-cyclopropylmethyl) ester]"
13,5,"CCN(CC)C(=O)COC(=O)C1(C(=O)OCC(=O)N(CC)CC)Oc2ccc(C[C@@H](C)NC[C@H](O)c3cccc(Cl)c3)cc2O1 [Example 68, 5-{(2R)-2-[(2R)-2-(3-Chloro-phenyl)-2-hydroxy-ethylamino]-propyl}-benzo[1,3]dioxole-2,2-dicarboxylic acid bis-diethylcarbamoylmethyl ester]"
14,2,"C[C@H](Cc1ccc2c(c1)OC(C(=O)OC1CCCCCCC1)(C(=O)OC1CCCCCCC1)O2)NC[C@H](O)c1cccc(Cl)c1 [Example 100, 5-{(2R)-2-[(2R)-2-(3-Chloro-phenyl)-2-hydroxy-ethylamino]-propyl}-benzo[1,3]dioxole-2,2-dicarboxylic acid dicyclooctyl ester]"

row,SMILES,activation at 0.01 µM [%]
1,"CC(=O)OCOC(=O)C1(C(=O)OCOC(C)=O)Oc2ccc(CC(C)NCC(O)c3cccc(Cl)c3)cc2O1 (centres unmarked) [Example 42, 5-{2-[2-(3-Chloro-phenyl)-2-hydroxyethylamino]propyl}benzo[1,3] dioxole-2,2-dicarboxylic acid bis-acetoxymethyl ester]",0
2,"CC(Cc1ccc2c(c1)OC(C(=O)O)(C(=O)OCCOC(C)(C)C)O2)NCC(O)c1cccc(Cl)c1 (centres unmarked) [Example 7, 5-{2-[2-(3-Chloro-phenyl)-2-hydroxy-ethylamino]-propyl}-benzo[1,3]dioxole-2,2-dicarboxylic acid (2-tert-butoxy-ethyl) ester]",2

# Same assay, conditions: CHO, 10 min, read-out: β2: % of isoproterenol activity (increase in cAMP)
row,SMILES,activation at 0.01 µM [%]
1,"CC(Cc1ccc2c(c1)OC(C(N)=O)(C(N)=O)O2)NCC(O)c1cccc(Cl)c1 (centres unmarked) [Example 60, 5-{2-[2-(3-Chloro-phenyl)-2-hydroxy-ethylamino]-propyl}benzo[1,3]dioxole-2,2-dicarboxylic acid bis-amide]",3
2,"CC(Cc1ccc2c(c1)OC(C(=O)OCCOc1ccccc1)(C(=O)OCCOc1ccccc1)O2)NCC(O)c1cccc(Cl)c1 (centres unmarked) [Example 4, 5-{2-[2-(3-Chloro-phenyl)-2-hydroxy-ethylamino]-propyl}-benzo[1,3]dioxole-2,2-dicarboxylic acid bis-(2-phenoxy-ethyl) ester hydrochloride salt]",1
3,"C[C@H](Cc1ccc2c(c1)OC(C(=O)OCCc1cccc(Br)c1)(C(=O)OCCc1cccc(Br)c1)O2)NC[C@H](O)c1cccc(Cl)c1 [Example 96, 5-{(2R)-2-[(2R)-2-(3-Chloro-phenyl)-2-hydroxy-ethylamino]-propyl}-benzo[1,3]dioxole-2,2-dicarboxylic acid bis-[2-(3-bromo-phenyl)-ethyl]ester hydrochloride salt]",1
4,"COCCOC(=O)C1(C(=O)OCCOC)Oc2ccc(CC(C)NCC(O)c3cccc(Cl)c3)cc2O1 (centres unmarked) [Example 1, 5-{2-[2-(3-Chloro-phenyl)-2-hydroxy-ethylamino]-propyl}-benzo[1,3]dioxole-2,2-dicarboxylic acid bis-(2-methoxy-ethyl) ester hydrochloride salt]",4
